This is an account of results in patent US10150757B2, “Quinazolinone derivatives as PARP inhibitors” (Janssen Pharmaceutica NV, priority 2004, dated 2018).

In assay [1] the target is T1, PARP-1 enzyme (Homo sapiens, UniProt P09874). As to the kind of experiment: In vitro scintillation proximity assay (SPA) for PARP-1 inhibitory activity. It counts as biochemical. The following applies: [3H]-NAD+, biotinylated histones, nicked DNA; read-out: in vitro SPA assay PARP-1 pIC50 (converted). The procedure: In Vitro Scintillation Proximity Assay (SPA) for PARP-1 Inhibitory Activity
T1 sequence (P09874 whole entry): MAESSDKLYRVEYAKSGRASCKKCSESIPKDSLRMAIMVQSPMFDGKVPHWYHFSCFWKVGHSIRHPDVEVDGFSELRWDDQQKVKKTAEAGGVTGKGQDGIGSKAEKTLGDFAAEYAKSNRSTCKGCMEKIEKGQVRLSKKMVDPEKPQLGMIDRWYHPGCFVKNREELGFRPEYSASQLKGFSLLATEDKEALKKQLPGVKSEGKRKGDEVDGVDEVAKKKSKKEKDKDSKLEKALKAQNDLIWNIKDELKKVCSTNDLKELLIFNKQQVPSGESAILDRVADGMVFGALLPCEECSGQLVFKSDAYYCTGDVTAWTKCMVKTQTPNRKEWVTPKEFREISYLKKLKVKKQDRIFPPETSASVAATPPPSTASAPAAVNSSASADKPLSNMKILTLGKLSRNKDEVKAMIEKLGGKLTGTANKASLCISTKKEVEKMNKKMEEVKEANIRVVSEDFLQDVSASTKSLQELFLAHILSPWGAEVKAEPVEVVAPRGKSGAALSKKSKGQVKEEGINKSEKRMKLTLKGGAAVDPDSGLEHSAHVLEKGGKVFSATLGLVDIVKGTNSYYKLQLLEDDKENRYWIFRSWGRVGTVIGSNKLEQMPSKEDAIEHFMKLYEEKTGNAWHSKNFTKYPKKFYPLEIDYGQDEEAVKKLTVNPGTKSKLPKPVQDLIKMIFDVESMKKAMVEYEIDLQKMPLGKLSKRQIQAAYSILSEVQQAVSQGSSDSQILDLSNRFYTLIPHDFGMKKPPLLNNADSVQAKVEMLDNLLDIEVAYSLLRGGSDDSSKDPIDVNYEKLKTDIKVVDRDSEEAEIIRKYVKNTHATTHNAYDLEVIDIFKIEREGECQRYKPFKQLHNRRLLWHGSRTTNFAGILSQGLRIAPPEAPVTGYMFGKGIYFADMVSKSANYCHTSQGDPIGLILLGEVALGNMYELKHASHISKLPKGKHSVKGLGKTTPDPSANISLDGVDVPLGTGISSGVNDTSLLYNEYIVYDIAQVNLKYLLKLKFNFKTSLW
Compounds of the present invention were tested in an in vitro assay based on SPA technology (proprietary to Amersham Pharmacia Biotech).
In principle, the assay relies upon the well established SPA technology for the detection of poly(ADP-ribosyl)ation of biotinylated target proteins, i.e histones. This ribosylation is induced using nicked DNA activated PARP-1 enzyme and [^3H]-nicotinamide adenine dinucleotide ([^3H]-NAD^+) as ADP-ribosyl donor.
As inducer of PARP-1 enzyme activity, nicked DNA was prepared. For this, 25 mg of DNA (supplier: Sigma) was dissolved in 25 ml DNAse buffer (10 mM Tris-HCl, pH 7.4; 0.5 mg/ml Bovine Serum Albumine (BSA); 5 mM MgCl2.6H2O and 1 mM KCl) to which 50 μl DNAse solution (1 mg/ml in 0.15M NaCl) was added. After an incubation of 90 min. at 37° C., the reaction was terminated by adding 1.45 g NaCl, followed by a further incubation at 58° C. for 15 min. The reaction mixture was cooled on ice and dialysed at 4° C. for respectively 1.5 and 2 hours against 1.5 l of 0.2M KCl, and twice against 1.5 l of 0.01M KCl for 1.5 and 2 h respectively. The mixture was aliquoted and stored at −20° C. Histones (1 mg/ml, type II-A, supplier: Sigma) were biotinylated using the biotinylation kit of Amersham and stored aliquoted at −20° C. A stock solution of 100 mg/ml SPA poly(vinyl toluene) (PVT) beads (supplier: Amersham) was made in PBS. A stock solution of [^3H]-NAD^+ was made by adding 120 μl of [^3H]-NAD^+ (0.1 mCi/ml, supplier: NEN) to 6 ml incubation buffer (50 mM Tris/HCl, pH 8; 0.2 mM DTT; 4 mM MgCl2). A solution of 4 mM NAD^+ (supplier: Roche) was made in incubation buffer (from a 100 mM stock solution in water stored at −20° C.). The PARP-1 enzyme was produced using art known techniques, i.e. cloning and expression of the protein starting from human liver cDNA. Information concerning the used protein sequence of the PARP-1 enzyme including literature references can be found in the Swiss-Prot database under primary accession number P09874. Biotinylated histones and PVT-SPA beads were mixed and pre-incubated for 30 min. at room temperature. PARP-1 enzyme (concentration was lot dependent) was mixed with the nicked DNA and the mixture was pre-incubated for 30 min. at 4° C. Equal parts of this histones/PVT-SPA beads solution and PARP-1 enzyme/DNA solution were mixed and 75 μl of this mixture together with 1 μl of compound in DMSO and 25 μl of [^3H]-NAD^+ was added per well into a 96-well microtiterplate. The final concentrations in the incubation mixture were 2 μg/ml for the biotinylated histones, 2 mg/ml for the PVT-SPA beads, 2 μg/ml for the nicked DNA and between 5-10 μg/ml for the PARP-1 enzyme. After incubation of the mixture for 15 min. at room temperature, the reaction was terminated by adding 100 μl of 4 mM NAD^+ in incubation buffer (final concentration 2 mM) and plates were mixed.
The beads were allowed to sediment for at least 15 min. and plates transferred to a TopCountNXT™ (Packard) for scintillation counting, values were expressed as counts per minute (cpm). For each experiment, controls (containing PARP-1 enzyme and DMSO without compound), a blank incubation (containing DMSO but no PARP-1 enzyme or compound) and samples (containing PARP-1 enzyme and compound dissolved in DMSO) were run in parallel. All compounds tested were dissolved and eventually further diluted in DMSO. In first instance, compounds were tested at a concentration of 10^−5M. […] In each test, the blank value was subtracted from both the control and the sample values. The control sample represented maximal PARP-1 enzyme activity. For each sample, the amount of cpm was expressed as a percentage of the mean cpm value of the controls. […] Herein the effects of test compounds are expressed as pIC50 (the negative log value of the IC50-value).
On the technique in general: SPA uses beads or plates that emit light when radiolabelled molecules are held near them.

In assay [2] the target is T1, PARP-1 enzyme. The assay is described as follows: In vitro filtration assay for PARP-1 inhibitory activity. To be noted: [32P]-NAD, histones, nicked DNA; read-out: in vitro filter assay PARP-1 pIC50 (converted). It counts as biochemical. Here is the method: In Vitro Filtration Assay for PARP-1 Inhibitory Activity
Compounds of the present invention were tested in an in vitro filtration assay assessing PARP-1 activity (triggered in the presence of nicked DNA) by means of its histone poly (ADP-ribosyl)ation activity using [^32P]-NAD as ADP-ribosyl donor. The radioactive ribosylated histones were precipitated by trichloroacetic acid (TCA) in 96-well filterplates and the incorporated [^32P] measured using a scintillation counter
A mixture of histones (stock solution: 5 mg/ml in H2O), NAD^+ (stock solution: 100 mM in H2O), and [^32P]-NAD^+ in incubation buffer (50 mM Tris/HCl, pH 8; 0.2 mM DTT; 4 mM MgCl2) was made. A mixture of the PARP-1 enzyme (5-10 μg/ml) and nicked DNA was also made. The nicked DNA was prepared as described in the in vitro SPA for PARP-1 inhibitory activity. Seventy-five μl of the PARP-1 enzyme/DNA mixture together with 1 μl of compound in DMSO and 25 μl of histones-NAD^+/[^32P]-NAD^+ mixture was added per well of a 96-well filterplate (0.45 μm, supplier Millipore). The final concentrations in the incubation mixture were 2 μg/ml for the histones, 0.1 mM for the NAD^+, […] (0.5 μC) for the [^32P]-NAD^+ and 2 μg/ml for the nicked DNA. Plates were incubated for 15 min. at room temperature and the reaction was terminated by the addition of 10 μl ice cold 100% TCA followed by the addition of 10 μl ice-cold BSA solution (1% in H2O). The protein fraction was allowed to precipitate for 10 min. at 4° C. and plates were vacuum filtered. The plates were subsequently washed with, for each well, 1 ml of 10% ice cold TCA, 1 ml of 5% ice cold TCA and 1 ml of 5% TCA at room temperature. Finally 100 μl of scintillation solution (Microscint 40, Packard) was added to each well and the plates were transferred to a TopCountNXT™ (supplier: Packard) for scintillation counting and values were expressed as counts per minute (cpm). For each experiment, controls (containing PARP-1 enzyme and DMSO without compound), a blank incubation (containing DMSO but no PARP-1 enzyme or compound) and samples (containing PARP-1 enzyme and compound dissolved in DMSO) were run in parallel. All compounds tested were dissolved and eventually further diluted in DMSO. In first instance, compounds were tested at a concentration of 10^−5M. […] In each test, the blank value was subtracted from both the control and the sample values. The control sample represented maximal PARP-1 enzyme activity. For each sample, the amount of cpm was expressed as a percentage of the mean cpm value of the controls. […] Herein the effects of test compounds are expressed as pIC50 (the negative log value of the IC50-value).

Take `O=c1[nH]c(NCCN2CCN(c3n[nH]c4ccccc34)CC2)nc2ccc(Cl)cc12` [Compound 1]: the IC50 at PARP-1 enzyme [1] is 7.76 nM.
With `O=c1[nH]c(NCCCN2CCC(O)(c3ccc(Cl)cc3)CC2)nc2ccccc12` [Compound 2], the IC50 at PARP-1 enzyme [1] was 133 nM; on PARP-1 enzyme [2], 973 nM.
Regarding `CCc1cc2cc(CN3CCN(CCNc4nc5ccccc5c(=O)[nH]4)CC3)ccc2nc1OC` [Compound 3], the IC50 at PARP-1 enzyme [1] is 535 nM.
For the molecule `CC1(C)Cc2c(N)c(Cl)cc(C(=O)NC3CCN(CCCNc4nc(O)c5ccccc5n4)CC3)c2O1` [Compound 4], the figures for the IC50 on PARP-1 enzyme [1] and at PARP-1 enzyme [2] were 718 nM and 3650 nM, respectively.
Consider `CC1(C)Cc2c(N)c(Cl)cc(C(=O)NC3CCN(CCCCNc4nc(O)c5ccccc5n4)CC3)c2O1` [Compound 5], for which the IC50 at PARP-1 enzyme [1] is 638 nM; at PARP-1 enzyme [2], 2640 nM.
For `CO[C@@H]1CN(CCCNc2nc(O)c3ccccc3n2)CC[C@@H]1NC(=O)c1cc(Cl)c(N)c2c1OCCC2` [Compound 6] the same measures were 387 nM and 2740 nM.
Regarding `Nc1c(Cl)cc(C(=O)OCC2CCN(CCNc3nc4ccccc4c(=O)[nH]3)CC2)c2c1OCCO2` [Compound 7], the results for the IC50 on PARP-1 enzyme [1] and at PARP-1 enzyme [2] were 592 nM and 3440 nM, respectively.
`CO[C@@H]1CN(CCCNc2nc(O)c3ccccc3n2)CCN1NC(=O)c1cc(Cl)c(N)c2c1OC(C)(C)C2` [Compound 8]: the IC50 at PARP-1 enzyme [1] is 535 nM; at PARP-1 enzyme [2], 2110 nM.
`CO[C@H]1CN(CCCNc2nc3ccccc3c(=O)[nH]2)CC[C@H]1NC(=O)c1cc(Cl)cc2c1OC(C)(C)C2` [Compound 18]: the IC50 is 847 nM on PARP-1 enzyme [1] and 4520 nM at PARP-1 enzyme [2].
Turning to `O=c1[nH]c(NCCCN2CCC(c3c[nH]c4ccccc34)CC2)nc2ccccc12` [Compound 20], the values for the IC50 on PARP-1 enzyme [1] and on PARP-1 enzyme [2] were 675 nM and 5300 nM, respectively.
Take `O=c1[nH]c(NCCN2CCC(c3n[nH]c4cc(F)ccc34)CC2)nc2ccccc12` [Compound 21]: the IC50 at PARP-1 enzyme [1] was 25.5 nM; at PARP-1 enzyme [2] it was 520 nM.
On to `O=c1[nH]c(NCCCN2CCN(c3n[nH]c4ccccc34)CC2)nc2ccccc12` [Compound 22], for which the IC50 on PARP-1 enzyme [1] was 46.3 nM; at PARP-1 enzyme [2], 467 nM.
For `O=C(NC1CCN(CCCNc2nc3ccccc3c(=O)[nH]2)CC1)c1ccccc1` [Compound 23] the same measures were 687 nM and 2540 nM.
For `O=c1[nH]c(NCCCN2CCN(c3nsc4ccccc34)CC2)nc2ccccc12` [Compound 24], the IC50 on PARP-1 enzyme [1] is 785 nM; at PARP-1 enzyme [2], 4950 nM.
For `O=c1[nH]c(NCCCN2CCC(c3n[nH]c4cc(F)ccc34)CC2)nc2ccccc12` [Compound 25] the same measures were 190 nM and 2320 nM.
For `O=c1[nH]c(NCCCN2CCC(c3noc4cc(F)ccc34)CC2)nc2ccccc12` [Compound 26] the same measures were 425 nM and 1630 nM.
As for `O=c1[nH]c(NCCCN2CCN(c3n[nH]c4cc(F)ccc34)CC2)nc2ccccc12` [Compound 27], the IC50 is 44.4 nM on PARP-1 enzyme [1] and 424 nM at PARP-1 enzyme [2].
For `CCCCn1cc(C2CCN(CCCNc3nc4ccccc4c(=O)[nH]3)CC2)c2ccccc21` [Compound 28] the same measures were 1490 nM and 2820 nM.
For `O=c1[nH]c(NCCCN2CCC(n3c(=O)[nH]c4ccccc43)CC2)nc2ccccc12` [Compound 29] the same measures were 785 nM and 4650 nM.
Consider `O=c1[nH]c(NCCN2CCC(Nc3nc4ccccc4c(=O)[nH]3)CC2)nc2ccccc12` [Compound 30], for which, on PARP-1 enzyme [1], the IC50 is 32.3 nM.
Same read-out and setting: with `O=c1[nH]c(NCCN2CCC(c3n[nH]c4cc(F)ccc34)CC2)nc2cc(Cl)ccc12` [Compound 31] the figure was 39.4 nM; with `O=c1[nH]c(NCCN2CCC(Nc3n[nH]c(=O)c4ccccc34)CC2)nc2ccccc12` [Compound 33], 34.8 nM.
Regarding `O=c1[nH]c(NCCN2CCC(c3n[nH]c4cc(F)ccc34)CC2)nc2ccc(Cl)cc12` [Compound 36], the IC50 on PARP-1 enzyme [1] was 10.8 nM.
`Cc1ccc2nc(NCCN3CCC(c4n[nH]c5cc(F)ccc45)CC3)[nH]c(=O)c2c1` [Compound 37]: the IC50 on PARP-1 enzyme [1] was 15.3 nM.
Regarding `O=c1[nH]c(NCCN2CCN(c3nc4ccccc4c(=O)[nH]3)CC2)nc2ccccc12` [Compound 38], on PARP-1 enzyme [1], the IC50 is 424 nM.
In the case of `Cc1cccc2nc(NCCN3CCN(c4n[nH]c5ccccc45)CC3)[nH]c(=O)c12` [Compound 39], the IC50 at PARP-1 enzyme [1] is 9.93 nM.
As to `O=c1nc(NCCCN2CCC(Nc3nccc4ccccc34)CC2)[nH]c2ccccc12` [Compound 40], the IC50 on PARP-1 enzyme [1] was 322 nM; at PARP-1 enzyme [2], 2240 nM.
`O=c1[nH]c(NCCN2CCN(c3n[nH]c4cc(F)ccc34)CC2)nc2ccccc12` [Compound 41]: the IC50 is 44.5 nM at PARP-1 enzyme [1] and 546 nM at PARP-1 enzyme [2].
For the molecule `O=c1[nH]c(NCCCN2CCC(Nc3cccc4ccccc34)CC2)nc2ccccc12` [Compound 42], the IC50 is 841 nM on PARP-1 enzyme [1] and 8950 nM at PARP-1 enzyme [2].
Turning to `Cc1ccc2nc(NCCN3CCN(c4n[nH]c5ccccc45)CC3)[nH]c(=O)c2c1` [Compound 43], the IC50 on PARP-1 enzyme [1] is 12.4 nM.
For `O=c1[nH]c(NCCN2CCN(c3n[nH]c4ccccc34)CC2)nc2cc(Cl)ccc12` [Compound 44], the IC50 at PARP-1 enzyme [1] was 29.3 nM.
Regarding `Nc1c(Cl)cc(C(=O)NC2CCN(CCCNc3nc(O)c4ccccc4n3)CC2)c2c1CCO2` [Compound 45], the IC50 at PARP-1 enzyme [1] was 225 nM; at PARP-1 enzyme [2], 3050 nM.
